One data set concerns p210^bcr-abl kinase. Description: Immunoprecipitation kinase assay of p210bcr-abl (autophosphorylation), ODN added to kinase reaction. Particulars: ODN at 1 μM added to the immunoprecipitated enzyme. The class given is biochemical, human. On the procedure: The p210^bcr-abl kinase, src kinase and cdc-2 kinase were immunoprecipitated from K562 cells. The p145^abl kinase was immunoprecipitated from PC3M cells, PDGF receptor kinase from 3T3 cells, and EGF receptor kinase from A431 cells. MAP kinase was utilized as a pure protein and lck kinase was immunoprecipitated from peripheral blood lymphocytes of a normal volunteer.
(§1) Cells were washed in phosphate buffered saline (PBS) and 0.5-5×10^6 cells were solubilized in 1 ml of the specified cell lysis buffers. Unless otherwise stated, all cell lysis buffers contained the following protease inhibitors: 20 μg/ml leupeptin, 1 μg/ml aprotinin, and 1 mM phenylmethylsulfonylfluroide. For p210^bcr-abl and […] immunoprecipitation, cells were lysed with ABL lysis buffer (25 mM imidazole, pH 7.2, 0.5% NP40, 50 mM NaCl, 1 mM Na3 VO4) and lysates were clarified at 14,000 g. 4° C. for 30 minutes. Cell lysis for all other proteins was performed according to the references describing the various immunoprecipitation kinase assays.
(§2) Immunoprecipitation kinase assays of p210^bcr-abl p145^abl were performed as described, with modifications (15). Briefly, for p210^bcr-abl, 1 μg of anti-bcr antibody (clone 7C6, Oncogene Science, Uniondale, N.Y.) was added to lysates prepared from 0.5-1×10^6 K562 cells. For p145^abl, 1 μg of anti-c-abl antibody (clone 24-21), which binds to the C-terminal domain of p145^abl, was added to lysates prepared from 5×10^6 PC3M cells. After incubating 1 hour at 4° C., complexes were precipitated by incubating with protein A-Sepharose coated with rabbit anti-mouse immunoglobulin (Cappel Research Products, Durham, N.C.) for 30 minutes. The complexes were then washed as follows: ABL lysis buffer×2, PBS×1, and ABL assay buffer×1 (24 mM imidazole, pH 7.2, 1 mg/ml bovine serum albumin, and 10 mM MnCl). For p145^abl assays ABL assay buffer contained 20 mM MnCl. To access the activity of p210^bcr-abl on substrate phosphorylation, acid inactivated enolase (Sigma Chemical Co., St. Louis, Mo.) was added as described (15).
(§3) ODNs were added to kinase reaction buffers not more than 5 minutes prior to the addition of ATP. Reactions were initiated by the addition of [γ^-32 P] ATP (3000 Ci/mmole; Amersham Corp., Arlington Heights, Ill.) and quenched by the addition of 5× gel loading buffer and heating to 95° C. Kinase reactions were run for 1-10 minutes at room temperature, except for EGFR, p145^abl, and MAP kinase, which were run at 30° C. The products were then electrophoresed on SDS-polyacrylamide gels: 7% for p210^bcr-abl, EGFR, and PDGFR, 8% for p145^abl, 10% for src, lck, and cdc-2 kinase, and 12% for MAP kinase. Gels were dried and reaction products were visualized by direct autoradiography at -70° C. with Kodak X-OMAT AR film. To determine the inhibitory concentration 50, i.e., the concentration required to inhibit enzyme activity by 50% (IC50) and Ki values, gel slices containing the band of interest were excised and analyzed by Cerenkov counting.

The next data set deals with p210^bcr-abl. Briefly: Inhibition of p210bcr-abl immunoprecipitation by BCR directed antibody clone 7C6. Type of data set: binding, human. The note with it: 10 μM ODN added to K562 cell lysate, antibody clone 7C6, Western for phosphotyrosine. The protocol: FIG. 9C. Inhibition of p210^bcr-abl immunoprecipitation by T-21. […] T-21 was added to the lysate from 1×10^6 K562 cells (lane 2) and p210^bcr-abl immunoprecipitated with the BCR directed antibody, clone 7C6; no ODN was added to the lysate immunoprecipitated in lane 1. After extensive washing, the immunoprecipitates were separated on a 7% SDS polyacrylamide gel, transferred to nitrocellulose, and probed with an anti-phosphotyrosine antibody. Data are representative of at least two separate experiments.
In experiments designed to test the specificity of BCR-AS, an ODN composed solely of thymidylic acid residues (T-21) i.e., 5' […] 3' (SEQ ID NO.: 12) was capable of interfering with p210^bcr-abl immunoprecipitation. […] From the data in FIG. 9A, one can calculate an IC50 of less than 1 μM. […] This apparent discrepancy appears to be due to the ability of T-21 to inhibit precipitation of p210^bcr-abl by the BCR-directed antibody, clone 7C6. […] Inhibition of p210^bcr-abl immunoprecipitation was not seen with the other ODNs used in this study (data now shown).

The subject of data set [1] is p210^bcr-abl kinase in K562 cells. Description: Immunoprecipitation kinase assay of p210bcr-abl from ODN treated K562 cells. The class given is cell-based, human. The note with it: K562 cells treated with T-21 overnight, washed, calculated from FIG. 9A, read-out: IC50 of apparent reduction of p210^bcr-abl kinase activity. On the procedure:
as §2, §3
The effects of ODN1 on a cellular system were assessed. […] After 3 days, cells were washed and p210^bcr-abl kinase activity was measured. […] Neither cellular p210^bcr-abl protein content nor cell growth was affected by ODN treatment (data not shown).

In data set [2] the target is p145 ABL tyrosine kinase (c-Abl) (UniProt P00519 P00519:1-1130). Description: inhibition; 20 mM Mn, 30 C. Particulars: tags: immunoprecipitated from PC3M cells with anti-c-abl clone 24-21. The protocol:
as §1, with “0.5–5×10^6” for “0.5-5×10^6”, “µg/ml” for “μg/ml”, “Na_3VO_4)” for “Na3 VO4)”
Immunoprecipitation kinase assays of p210^bcr-abl p145^abl were performed as described, with modifications (15). Briefly, for p210^bcr-abl, 1 µg of anti-bcr antibody (clone 7C6, Oncogene Science, Uniondale, N.Y.) was added to lysates prepared from 0.5–1×10^6 K562 cells. For p145^abl, 1 µg of anti-c-abl antibody (clone 24-21), which binds to the C-terminal domain of p145^abl, was added to lysates prepared from 5×10^6 PC3M cells. After incubating 1 hour at 4° C., complexes were precipitated by incubating with protein A-Sepharose coated with rabbit anti-mouse immunoglobulin (Cappel Research Products, Durham, N.C.) for 30 minutes. […]

Chain of p145 ABL tyrosine kinase (c-Abl) (P00519 whole entry, one chain of several): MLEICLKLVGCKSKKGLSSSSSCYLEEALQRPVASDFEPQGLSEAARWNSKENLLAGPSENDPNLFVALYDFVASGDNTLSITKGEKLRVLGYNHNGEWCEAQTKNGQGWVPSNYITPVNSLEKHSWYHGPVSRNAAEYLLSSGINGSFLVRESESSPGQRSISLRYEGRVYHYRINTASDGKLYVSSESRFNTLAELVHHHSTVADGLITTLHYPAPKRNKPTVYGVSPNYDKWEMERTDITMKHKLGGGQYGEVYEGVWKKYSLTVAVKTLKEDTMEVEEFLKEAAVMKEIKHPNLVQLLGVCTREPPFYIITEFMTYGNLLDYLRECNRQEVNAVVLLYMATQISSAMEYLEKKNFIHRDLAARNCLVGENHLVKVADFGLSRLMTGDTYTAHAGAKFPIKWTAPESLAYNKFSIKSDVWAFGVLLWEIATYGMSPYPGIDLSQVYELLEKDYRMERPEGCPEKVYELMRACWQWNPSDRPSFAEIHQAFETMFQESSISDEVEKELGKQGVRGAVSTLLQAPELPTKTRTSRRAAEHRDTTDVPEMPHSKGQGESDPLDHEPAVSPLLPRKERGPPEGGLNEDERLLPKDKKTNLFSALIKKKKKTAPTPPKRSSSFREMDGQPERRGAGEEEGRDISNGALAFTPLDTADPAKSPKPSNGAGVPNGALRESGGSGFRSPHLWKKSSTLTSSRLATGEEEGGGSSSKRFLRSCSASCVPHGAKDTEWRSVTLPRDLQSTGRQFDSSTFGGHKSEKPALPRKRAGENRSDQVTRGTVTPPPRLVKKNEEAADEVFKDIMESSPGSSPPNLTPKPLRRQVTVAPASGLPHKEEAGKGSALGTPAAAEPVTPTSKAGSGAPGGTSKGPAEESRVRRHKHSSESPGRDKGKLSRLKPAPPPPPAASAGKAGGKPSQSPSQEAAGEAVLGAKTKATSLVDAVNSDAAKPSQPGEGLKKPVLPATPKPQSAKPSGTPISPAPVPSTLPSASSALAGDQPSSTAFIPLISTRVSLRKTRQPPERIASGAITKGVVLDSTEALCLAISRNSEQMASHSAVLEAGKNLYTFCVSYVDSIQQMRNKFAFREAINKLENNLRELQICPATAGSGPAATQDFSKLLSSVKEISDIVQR

A word on the IC50: it is the concentration that gives 50% inhibition. “5' TTTTTTTTTTTTTTTTTTTTT 3' (chemistry not given here) [T-21, a 21mer composed solely of thymidylic acid residues]”: the “inhibition of p210^bcr-abl kinase activity in vitro (in words)” value in the data set on p210^bcr-abl kinase was “only moderate inhibition”. Further, in the data set with p210^bcr-abl, the “inhibition of p210^bcr-abl immunoprecipitation” value is reported as “nearly total inhibition”. For the same molecule, the IC50 in data set [1] is less than 1000 nM.

GTCCACCATGGCGCGGCCGGC (ssDNA, PS, two linkages at each of 5' and 3' ends, rest phosphodiester) [ODN1 (BCR-AS), phosphorothioate capped] yielded an IC50 in data set [2] of 620 nM.
